Patent US6833387B1, “Chemical compounds” (AstraZeneca AB, priority 1999, dated 2004)
Read-outs that look alike come from different tables or passages of the source.

Legend:
[1] = test system: THP-1 cells; assay: hMCP-1 mediated chemotaxis; format: cell-based, human; conditions: THP-1 cell migration
Procedure: In vitro chemotaxis assays were performed using the human monocytic cell line THP-1. Cell migration through polycarbonate membranes was measured by enumerating those passing through either directly by Coulter counting or indirectly by use of a colourimetric viability assay measuring the cleavage of a tetrazolium salt by the mitochondrial respirator chain (Scudiero D. A., et al. 1988, Cancer Res., 48, 4827-4833).
Chemoattractants were introduced into a 96-well microtitre plate which forms the lower well of a chemotaxis chamber fitted with a PVP-free 5 μm poresize polycarbonate adhesive framed filter membrane (NeuroProbe MB series, Cabin John, Md. 20818, USA) according to the manufacturer's instructions. The chemoattractant was diluted as appropriate in synthetic cell culture medium. […] The plate was incubated at 37° C. for 3 h and the absorbance of the soluble formazan product was read on a microtitre plate reader at 450 nm. The data was input into a spreadsheet, corrected for any random migration in the absence of chemoattractant and the average absorbance values, standard error of the mean, and significance tests were calculated, hMCP-1 induced concentration dependent cell migration with a characteristic biphasic response, maximal 0.5-1.0 nm. […]

[2] = test system: THP-1 cells; assay: MCP-1 mediated calcium flux in THP-1 cells; format: cell-based, human; conditions: stimulation of THP-1 cells, approximate; read-out: EC50 for rise in [Ca2+]i
Procedure: The human monocytic cell line THP-1 was grown in a synthetic cell culture medium RPMI 1640 supplemented with 10% foetal calf serum. 6 mM glutamine and Penicillin-Streptomycin (at 50 μg streptomycin/mil, Gibco BRL). THP-1 cells were washed in HBSS (lacking Ca^2+ and Mg^2+)+1 mg/ml BSA and resuspended in the same buffer at a density of 3×10^6 cells/ml. The cells were then loaded with […] FURA-2/AM for 30 min at 37° C., washed twice in HBSS, and resuspended at 1×10^6 cells/ml. THP-1 cell suspension (0.9 ml) was added to a 5 ml disposable cuvette containing a magnetic stirrer bar and 2.1 ml of prewarmed (37° C.) HBSS containing 1 mg/ml BSA. 1 mM MgCl2 and 2 mM CaCl2. The cuvette was placed in a fluorescence spectrophotometer (Perkin Elmer, Norwalk, Conn.) and preincubated for 4 min at 37° C. with stirring. Fluorescence was recorded over 70 sec and cells were stimulated by addition of hMCP-1 to the cuvette after 10 sec. [Ca^2+]i was measured by excitation at 340 nm and 380 nm alternately and subsequent measurement of the intensity of the fluorescence emission at 510 nm.
where the Kd for FURA-2 Ca^2+ complex at 37° C. was taken to be 224 nm. […]

[3] = molecular target: T1, MCP-1 receptor B (CCR2B) (Homo sapiens, UniProt P41597); assay: hMCP-1 receptor binding assay (125I-MCP-1, CHO-CCR2B cell membranes)
T1 construct: expressed in transfected cells; membrane fragments
T1 sequence (P41597 1-360 isoform P41597-2): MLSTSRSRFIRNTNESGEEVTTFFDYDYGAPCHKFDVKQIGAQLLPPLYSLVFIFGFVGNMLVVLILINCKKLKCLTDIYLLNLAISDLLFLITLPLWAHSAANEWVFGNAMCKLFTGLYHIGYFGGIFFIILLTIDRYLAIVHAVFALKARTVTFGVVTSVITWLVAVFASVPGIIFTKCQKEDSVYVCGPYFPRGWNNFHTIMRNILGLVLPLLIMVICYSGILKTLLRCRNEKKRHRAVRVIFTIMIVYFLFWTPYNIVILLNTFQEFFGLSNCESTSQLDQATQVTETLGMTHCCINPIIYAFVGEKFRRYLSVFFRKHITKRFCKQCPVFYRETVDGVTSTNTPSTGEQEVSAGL
From the text: The MCP-1 receptor B (CCR2B) cDNA was cloned by PCR from THP-1 cell RNA using suitable oligonucleotide primers based on the published MCP-1 receptor sequences (Charo et al., 1994, Proc. Natl. Acad Sci. USA. 91, 2752). The resulting PCR products were cloned into vector PCR-II™ (In Vitrogen, San Diego, Calif.). Error free CCR2B cDNA was subcloned as a Hind III-Not I fragment into the eukaryotic expression vector pCDNA3 (In Vitrogen) to generate pCDNA3/CC-CKR2A and pCDNA3/CCR2B respectively.
Linearised pCDNA3/CCR2B DNA was transfected into CHO-K1 cells by calcium phosphate precipitation (Wigler et al., 1979, Cell, 16, 777). Transfected cells were selected by the addition of Geneticin Sulphate (G418, Gibco BRL) at 1 mg/ml, 24 hours after the cells had been transfected. Preparation of RNA and Northern blotting were carried out as described previously (Needham et al., 1995, Prot. Express. Purific., 6, 134). CHO-K1 clone 7 (CHO-CCR2B) was identified as the highest MCP-1 receptor B expressor.
CHO-CCR2B cells were grown in DMEM supplemented with 10% foetal calf serum. 2 mM glutamine. […]
^125I MCP-1 was prepared using Bolton and Hunter conjugation (Bolton et al. 1973. Biochem. J., 133, 529, Amersham International plc]. Equilibrium binding assays were carried out using the method of Ernst et al., 1994, J. Immunol., 152, 3541. Briefly, varying amounts of ^125I-labeled MCP-1 were added to 7 μg of purified CHO-CCR2B cell membranes in 100 μl of Binding Buffer. After 1 hour incubation at room temperature the binding reaction mixtures were filtered and washed 5 times through a plate washer (Brandel MLR-96T Cell Harvester) using ice cold Binding Buffer. Filter mats (Brandel GF/B) were pre-soaked for 60 minutes in 0.3% polyethylenimine prior to use. Following filtration individual filters were separated into 3.5 ml tubes (Sarstedt No. 55,484) and bound ^125I-labeled MCP-1 was determined (LKB 1277 Gammamaster). […] Non-specific binding was determined by the inclusion of a 200-fold molar excess of unlabelled MCP-1 in the reaction. […]

Molecule: MCP-1: Human Monocyte Chemoattractant Protein-1, a C—C chemokine; ligand of the MCP-1 (CCR2) receptor
- concentration of maximal cell migration (biphasic response) [1]: 0.5-1.0 nm
- EC50 [2]: ~2 nM
- IC50 ([3]; membrane fragments from CHO-CCR2B cells, cold competition, read-out: IC50 of MCP-1 binding to CCR2B): 0.11 nM
- Kd ([3]; membrane fragments from CHO-CCR2B cells, equilibrium binding): 0.12 nM

Molecule: O=C(NC1CCS(=O)(=O)C1)c1c(C(=O)O)n(Cc2ccc(Cl)c(Cl)c2)c2ccccc12 (centres unmarked) [Compound 81]
- IC50 ([3]; competition with 100 pM labelled MCP-1, CHO-CCR2B membranes, read-out: IC50 in the hMCP-1 receptor binding assay): 6860 nM
